One assay has as its target T1, native TRPV1 (Rattus norvegicus, UniProt O35433).
T1 construct: RTX-induced membrane currents on native TRPV1 in embryonic DRG neurons grown in culture; endogenous in cells; host or cells: primary rat E18 DRG neurons
As to the kind of experiment: Whole-cell currents in cultured embryonic DRG neurons (patch clamp). The format is cell-based. Conditions: for activation phase of whole-cell current: −60 mV; for reversibility of induced current: RTX 10 and 100 nM, washout >15 min. As to the method:
Electrophysiology. Whole-cell and single-channel currents were recorded from rat DRG neurons in culture and from Xenopus laevis oocytes injected with rat TRPV1 cRNA. Animals were cared for according to the standards of the National Institutes of Health (NIH). All animal use protocols were approved by Southern Illinois University School of Medicine Animal Care Committee.
Primary DRG neuronal cultures were prepared from embryonic day 18 (E18) rat embryos. Adult pregnant rats were killed with an overdose of isoflurane. DRG were dissected and the cells were dissociated by triturating with a fire-polished glass pipette. Cells were cultured in Neurobasal medium (Life Technologies, Buffalo, N.Y., USA), supplemented with 10% fetal bovine serum (FBS), and grown on poly-D-lysine-coated glass coverslips. Cells were used from 5 to 15 days after plating. Small diameter (<30 μm) rounded neurons were selected for patch-clamp experiments. […] The Giga-seal patch-clamp technique was used to record whole-cell currents. For perforated-patch recordings, the bath solution contained (mM): sodium gluconate 140, KCl 2.5, Hepes 10, MgCl2 1 and ethylene glycol bis(2-aminoethyl ether)-N,N,N′N′-tetraacetic acid (EGTA) 1.5 (pH adjusted to 7.35 with NaOH), and the pipette solution contained (mM): sodium gluconate 130, NaCl 10, KCl 2.5, Hepes 10, MgCl2 1, EGTA 1.5 and 240 μg/ml^−1 amphotericin B (pH adjusted to 7.35 with NaOH). For current-clamp experiments the pipette solution contained (mM): potassium gluconate 130, NaCl 10, MgCl2 1, EGTA 0.2, K2ATP 1 and Hepes 10; pH adjusted to 7.35 with NaOH. Extracellular solution for current- and voltage-clamp experiments contained (mM): NaCl 140, KCl 4, MgCl2 1 and Hepes 10; pH adjusted to 7.35 with NaOH. Currents were recorded using a WPC 100 patch-clamp amplifier (E.S.F. Electronic, Goettingan, Germany). Data were filtered at 10 kHz, digitized (VR-10B, Instrutech Corp., Great Neck, N.Y., USA) and stored on videotapes or directly stored in the computer using a LabView interface. For analysis of whole-cell currents, data were filtered at 1 kHz (−3 db frequency with an 8-pole low-pass Bessel filter, Warner Instruments, LPF-8) and digitized at 2 kHz.
This example tests the activation of whole-cell current in DRG neurons by RTX. We determined the properties of RTX-induced membrane currents on native TRPV1 in embryonic DRG neurons grown in culture. […] Protons were not used to elicit currents because of the presence of acid-sensitive ion channels in these neurons.
In general terms: In patch-clamp work, channel activity is measured electrically.

A further assay concerns the target T2, cloned TRPV1 (Rattus norvegicus, UniProt O35433).
T2 construct: expressed in transfected cells; host or cells: Xenopus laevis oocytes injected with TRPV1 cRNA
As to the kind of experiment: Single-channel currents in excised (outside-out) patches from oocytes expressing cloned TRPV1. Conditions: for single-channel conductance / single-channel current amplitude: excised patches, cloned TRPV1; for Po: outside-out/excised patches, RTX, capsaicin 100 nM. The format is cell-based. As to the method: Oocytes were obtained by an abdominal incision after anaesthetizing the frog by immersion in a 0.05% solution of 3-aminobenzoic acid ethyl ester (MS222). Animals were killed by a subcutaneous injection of a 2% solution of MS222 according to NIH guidelines. One day after separating the oocytes from the follicular layer, 50-70 nl TRPV1 cRNA was injected using a Drummond Nanoject (Drummond Scientific Co., Broomall, Pa., USA). Oocytes were used for recording from 3 days after the injection. Double-electrode voltage clamp was performed using a Warner amplifier (Warner Instruments, Hamden, Conn., USA). Data were digitized and stored on videotape or directly stored on the computer using a LabView interface (National Instruments, Austin, Tex., USA). Experiments were performed at 21-23° C. Oocytes were placed in a Perspex chamber superfused (5-10 ml min^−1) with Ca^2+-free Ringer solution containing (mM): NaCl 100, KCl 2.5 and Hepes 5; pH adjusted to 7.35 with NaOH. Current-voltage relationships were measured using 1-s voltage ramps from −80 to +80 mV.
For single-channel recording in cell-attached patches from DRG neurons, the bath solution contained (mM): potassium gluconate 140, KCl 2.5, MgCl2 1, Hepes 5 and EGTA 1.5; pH adjusted to 7.35 with NaOH. The patch pipettes were made from glass capillaries (Drummond, Microcaps), coated with Sylgard (Dow Corning, Midland, Mich., USA). For cell-attached patches, the patch pipettes were filled with a solution that contained (mM): sodium gluconate 140, NaCl 10, MgCl2 1, Hepes 5 and EGTA 1.5; pH adjusted to 7.35 with NaOH. While recording from cell-attached patches, in order to avoid differences in the driving force because of the differences in the membrane potential, the external NaCl was replaced by an equal amount of KCl in order to nullify the membrane potential. For outside-out patches, the pipette solution contained (mM): sodium gluconate 90, NaCl 10, BAPTA 10, Hepes 10, K2ATP2 and GTP 0.25; pH adjusted to 7.35 with NaOH. The bath solution contained (mM): sodium gluconate 100, KCl 2.5, MgCl2 1, Hepes 5 and EGTA 1.5; pH adjusted to 7.35 with NaOH. All the experiments were performed at room temperature (21-23° C.). Agar-bridge electrodes were used to avoid changes in junction potential. The currents were recorded using a WPC 100 (Warner Instruments) or Axopatch 2B (Axon Instruments, Union City, Calif., USA) patch-clamp amplifier. Data were filtered at 10 kHz (Axopatch 2B), digitized (VR-10B, Instrutech Corp.), and stored on videotapes. For the analysis of amplitude and open probability (Po), the data were filtered at 2.5 kHz (−3 db frequency with an 8-pole low-pass Bessel filter, Warner Instruments) and digitized at 5 kHz. For dwell-time analysis, the data were filtered at 10 kHz and digitized at 50 kHz.
Single-channel analysis. Single-channel current amplitude and Po were estimated from all-point current amplitude histograms (Channel 2 software kindly provided by Michael Smith, Australian National University, Can berra, Australia) and fitted to Gaussian densities (Origin, OriginLab Corp., Northampton, Mass., USA). For current-voltage relationships, the amplitudes were determined by fitting a Gaussian curve to an all-point histogram. Po was determined using unedited segments of data, which were typically 1-5 min long. For multiple channel patches, the mean Po was measured as nPo, where n is the number of channels in the patch. Chord conductance was measured at +60 or −60 mV. Slope conductance was determined by linear fits to current-voltage data between +20 and +100 mV or −20 and −100 mV.
Next we recorded single-channel currents from the cloned TRPV1 in excised patches. […] (Premkumar et al. 2002.)
Next we recorded single-channel currents using outside-out patches from oocytes expressing TRPV1.

Setting [1] is: oocytes expressing TRPV1, +60 mV.

The structures appear in SMILES notation. “And” between values parts separate entries of the source, which are not always exact repeats. Equal values may be shown once.

T1 sequence (O35433 whole entry): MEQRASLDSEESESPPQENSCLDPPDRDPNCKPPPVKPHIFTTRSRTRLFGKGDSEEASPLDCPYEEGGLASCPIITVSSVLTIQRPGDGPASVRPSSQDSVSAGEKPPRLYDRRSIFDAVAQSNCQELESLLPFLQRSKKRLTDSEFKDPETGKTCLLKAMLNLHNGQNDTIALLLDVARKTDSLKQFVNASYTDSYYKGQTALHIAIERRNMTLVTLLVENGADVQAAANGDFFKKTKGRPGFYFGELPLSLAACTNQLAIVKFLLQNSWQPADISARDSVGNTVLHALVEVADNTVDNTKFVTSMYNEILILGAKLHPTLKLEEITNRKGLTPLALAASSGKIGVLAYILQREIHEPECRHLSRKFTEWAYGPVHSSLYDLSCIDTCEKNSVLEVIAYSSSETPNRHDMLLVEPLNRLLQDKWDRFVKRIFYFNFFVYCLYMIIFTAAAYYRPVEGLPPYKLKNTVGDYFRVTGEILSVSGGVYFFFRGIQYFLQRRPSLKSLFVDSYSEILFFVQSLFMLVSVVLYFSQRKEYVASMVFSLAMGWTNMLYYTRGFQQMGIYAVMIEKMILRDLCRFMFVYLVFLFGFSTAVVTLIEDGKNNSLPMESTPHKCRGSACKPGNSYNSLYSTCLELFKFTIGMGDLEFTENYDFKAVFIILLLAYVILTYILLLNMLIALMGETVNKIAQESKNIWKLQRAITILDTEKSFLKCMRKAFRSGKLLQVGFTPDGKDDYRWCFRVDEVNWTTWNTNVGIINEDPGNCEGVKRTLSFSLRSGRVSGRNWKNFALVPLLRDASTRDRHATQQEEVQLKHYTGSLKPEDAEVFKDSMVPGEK
T2 sequence (O35433 whole entry): as above

As for `C=C(C)[C@]12C[C@@H](C)[C@@]34O[C@](Cc5ccccc5)(O[C@@H]1[C@@H]3C=C(COC(=O)Cc1ccc(O)c(OC)c1)C[C@]1(O)C(=O)C(C)=C[C@@H]41)O2` [RTX, resiniferatoxin], the “activation phase of whole-cell current” value at native TRPV1 (RTX 10 nM) is 69 ± 10.9 s. Moreover, the “activation phase of whole-cell current” value at native TRPV1 (RTX 100 nM) is 29.35 ± 2.65 s. In addition, at native TRPV1 (capsaicin 1 μM), the “reversibility of induced current” value was “could not be reversed readily”. Also, on cloned TRPV1 (+60 mV), the single-channel conductance was 103.3±0.83 pS, the single-channel current amplitude came out at 6.19±0.05 pA and the Po was 0.88±0.03. Further, on cloned TRPV1 (setting [1]), the “current amplitudes of multiple conductance states” value was 3.5 pA and 5.3 pA and 6.9 pA; the “single-channel conductance of multiple conductance states” value is 58 pS and 88 pS and 115 pS. For the same compound, on cloned TRPV1 (−60 mV), the single-channel conductance is given as 43±2.8 pS, the single-channel current amplitude turned out to be 2.59±0.17 pA and the Po came out at 0.83±0.05.
Regarding `COc1cc(CNC(=O)CCCC/C=C/C(C)C)ccc1O` [capsaicin], at native TRPV1 (capsaicin 1 μM), the “reversibility of induced current” value is listed as “readily reversible” and the “activation phase of whole-cell current” value came out at 7.14 ± 0.42 s. On native TRPV1 (small diameter cultured DRG neurons), the “neurons responding to capsaicin” value was “More than 70%”. On cloned TRPV1 (+60 mV), the single-channel conductance came out at 95.3±1.7 pS, the single-channel current amplitude is 5.71±0.1 pA and the Po worked out at 0.4±0.03. At cloned TRPV1 (−60 mV), this compound came in with a single-channel conductance of 41.8±1.3 pS, a single-channel current amplitude of 2.52±0.08 pA and a Po of 0.14±0.01.

For the origin of these results see patent US20090209633A1, “Treatment of Pain With Resiniferatoxin and Related Analogs” (priority 2006, published 2009).
